What was measured:
Test in all cases: Qualitative dye staining on agarose pads (EVOS M7000)
Format in all cases: cell-based
Parameters in all cases: key to Relative fluorescent intensity: Very high: If the cells looked twice as big in the fluorescent channel, it was marked as having “very high” relative fluorescent intensity; High: if the cells looked bigger in the fluorescent channel, it was marked as having “high” relative fluorescent intensity; Medium: If the cells looked almost the same size in the fluorescent channel and the bright field, it was marked as having “medium” relative fluorescent intensity; Low: If the cells looked smaller in the fluorescent channel as compared to the brightfield but still the whole cell was visible, it was marked as having “low” relative fluorescent intensity; Negligible: If only a few traces of a cell was visible in the fluorescent channel, it was marked as having “negligible” relative fluorescent intensity
Staphylococcus aureus = settings: DiSC3(5) 3 μM, SYBR Green I 10×, SYTO 13 3 μM, FM4-64 15 μM
Procedure: (§1) An overnight culture was prepared by inoculating a bacterial colony in approximately 5 ml of Urine and incubating the culture in an orbital shaker at 37° C.
(§2) The following media and materials were utilised: Cation-adjusted Mueller Hinton broth (MHB); Phosphate Buffered Saline (PBS); Membrane staining dye—FM4-64 (1.5 mM); Live cell staining dye—DiSC3(5) (1 mM); DNA staining dye—SYBR Green (1000×); DNA staining dye—SYTO 13 (0.5 mM); Ultrapure Agarose; Parafilm; Glass slides and coverslips; Scalpel; and EVOS M7000 fluorescent microscope.
(§3) A pre-cut parafilm or a coverslip was used as a guide and 22 mm×22 mm squares cut from parafilm. A square was cut out of the centre of the parafilm (approximately 10 mm×10 mm). The centre of the cut-out was discarded. Two parafilm gaskets were placed onto a cleaned glass slide. The glass slide was then placed on a dry bath set to 56° C. so that the parafilm adhered to the glass slide. The glass slide was then kept on the dry bath. Using a microwave, ultrapure agarose was dissolved in PBS at a concentration of 1.2%. The agarose solution was kept on a dry bath set at 56° C. 60 μl of the agarose solution was pipetted in the centre of the parafilm gaskets. A coverslip was then placed over the gaskets without applying pressure on the coverslip. The slide was then placed on a cool surface and left to solidify for 1-2 minutes. The coverslips were then gently lifted off the agarose pads.
(§4) In a first Eppendorf, 15 μl of FM4-64 and 6 μl of SYTO 13 was added and in a second Eppendorf 10 μl of SYBR Green and 3 μl of DiSC3(5) was added. Depending on the bacterial growth in urine, an appropriate concentration of the bacterial culture was placed in the two Eppendorfs (final bacterial concentration 10^6 CFU/ml). MHB was added so as to achieve a final volume of 1 ml. Final concentrations of the dyes in the sample was as follows: DiSC3(5): 3 μM; SYBR Green I: 10× (originally supplied as 10,000×); SYTO 13: 3 μM; and FM4-64: 15 μM
(§5) 4 μl of the contents of each Eppendorf were deposited on one agarose pad and the cells distributed across the agar surface by tilting the slide. The slide was left to dry for approximately 1 minute. A coverslip was then placed on top of the agarose pad. The slide was placed inside the microscope and incubated at 37° C. for 10 minutes. Using different light filters for each dye, an image of each pad at 40× magnification on an EVOS M7000 fluorescent microscope was captured. Eight images for each agarose pad was recorded (i.e. 8 each for brightfield and 2 fluorescent channels). For each agarose pad, 24 images were recorded. This corresponded to 48 images in total for each bacterial strain (2 agarose pads per strain). Table A below was used to take the images using the correct fluorescent channel and intensity (for imagining on any other instrument, the LED intensity will need to be normalised against the EVOS M7000).
(§6) To qualitatively calculate the relative fluorescent intensities, cell size was compared between brightfield and the fluorescent channel for a given fluorescent dye. If the cells are very fluorescent, they will appear bigger in the fluorescent channel as compared to the bright field. For our qualitative measurements, if the cells looked bigger in the fluorescent channel, it was marked as having “high” relative fluorescent intensity. If the cells looked twice as big in the fluorescent channel, it was marked as having “very high” relative fluorescent intensity. If the cells looked almost the same size in the fluorescent channel and the bright field, it was marked as having “medium” relative fluorescent intensity. If the cells looked smaller in the fluorescent channel as compared to the brightfield but still the whole cell was visible, it was marked as having “low” relative fluorescent intensity. If only a few traces of a cell was visible in the fluorescent channel, it was marked as having “negligible” relative fluorescent intensity.

Klebsiella = settings: Table 6 thresholds, DiSC3(5) 3 μM, SYBR Green I 10×, SYTO 13 3 μM, FM4-64 15 μM
Procedure: as §1, §2, §3, §4, §5, §6

Pseudomonas aeruginosa = settings: DiSC3(5) 3 μM, SYBR Green I 10×, SYTO 13 3 μM, FM4-64 15 μM
Procedure: as §1, §2, §3, §4, §5, §6

[1] = Table 6 thresholds, Staphylococcus aureus
[2] = Table 7 commercial strain S. Aureus NCTC 9369
[3] = Table 7 commercial strain S. aureus NCTC 8532
[4] = Table 8 sample Staphylococcus aureus (041)
[5] = Table 8 sample Staphylococcus aureus (042)
[6] = Table 8 sample Staphylococcus aureus (043)
[7] = Table 6 thresholds, Pseudomonas aeruginosa
[8] = Table 7 commercial strain Pseudomonas aeruginosa NCTC 10332
[9] = Table 7 commercial strain Pseudomonas aeruginosa NCTC 13715
[10] = Table 8 sample Pseudomonas aeruginosa (031)
[11] = Table 8 sample Pseudomonas aeruginosa (032)
[12] = Table 8 sample Pseudomonas aeruginosa (033)

SMILES | Percentage of cells stained (Staphylococcus aureus; [1]) | Relative fluorescent intensity (Staphylococcus aureus; [1]) | Percentage of cells stained (Staphylococcus aureus; [2]) | Relative fluorescent intensity (Staphylococcus aureus; [2]) | Percentage of cells stained (Staphylococcus aureus; [3]) | Relative fluorescent intensity (Staphylococcus aureus; [3]) | Percentage of cells stained (Staphylococcus aureus; [4]) | Relative fluorescent intensity (Staphylococcus aureus; [4]) | Percentage of cells stained (Staphylococcus aureus; [5]) | Relative fluorescent intensity (Staphylococcus aureus; [5]) | Percentage of cells stained (Staphylococcus aureus; [6]) | Relative fluorescent intensity (Staphylococcus aureus; [6]) | Percentage of cells stained (Klebsiella) | Relative fluorescent intensity (Klebsiella) | Percentage of cells stained (Pseudomonas aeruginosa; [7]) | Relative fluorescent intensity (Pseudomonas aeruginosa; [7]) | Percentage of cells stained (Pseudomonas aeruginosa; [8]) | Relative fluorescent intensity (Pseudomonas aeruginosa; [8]) | Percentage of cells stained (Pseudomonas aeruginosa; [9]) | Relative fluorescent intensity (Pseudomonas aeruginosa; [9]) | further results
CCCN(CCCN(C)C)c1cc(/C=C2/Sc3ccccc3N2C)c2ccccc2[n+]1-c1ccccc1 [SYBR Green I, N′,N′-dimethyl-N-[4-[(E)-(3-methyl-1,3-benzothiazol-2-ylidene)methyl]-1-phenylquinolin-1-ium-2-yl]-N-propylpropane-1,3-diamine] | Almost all | high | Almost all | High | Almost all | High | Almost all | High | Almost all | High | Almost all | High | Few | Low | Almost all | Low | Almost all | Low | Almost all | Low | Relative fluorescent intensity (Staphylococcus aureus; Table 6 thresholds, Staphylococcus aureus, listed as SYBR Green): High; Percentage of cells stained (Pseudomonas aeruginosa; [10]): Almost all; Relative fluorescent intensity (Pseudomonas aeruginosa; [10]): Low; Percentage of cells stained (Pseudomonas aeruginosa; [11]): Almost all; Relative fluorescent intensity (Pseudomonas aeruginosa; [11]): Low; Percentage of cells stained (Pseudomonas aeruginosa; [12]): Almost all; Relative fluorescent intensity (Pseudomonas aeruginosa; [12]): Low
CCN(CC)c1ccc(C=CC=CC=Cc2cc[n+](CCC[N+](CC)(CC)CC)cc2)cc1.[Br-].[Br-] [FM 4-64, N-(3-Triethylammoniumpropyl)-4-(6-(4-(Diethylamino) Phenyl) Hexatrienyl) Pyridinium Dibromide] | Almost all | Medium-high | Almost all | High | Almost all | Medium | Almost all | High | Almost all | Medium | Almost all | Medium | Few | Low | Almost all | Low | Almost all | Negligible | Almost all | Low | Percentage of cells stained (Pseudomonas aeruginosa; [10]): Almost all; Relative fluorescent intensity (Pseudomonas aeruginosa; [10]): Low; Percentage of cells stained (Pseudomonas aeruginosa; [11]): Almost all; Relative fluorescent intensity (Pseudomonas aeruginosa; [11]): Low; Percentage of cells stained (Pseudomonas aeruginosa; [12]): Almost all; Relative fluorescent intensity (Pseudomonas aeruginosa; [12]): Low

Source: patent US20250052744A1, “Dyes and Uses Thereof” (The University of Liverpool, priority 2021, published 2025)
